Measurements as given in publication PMC7845594, “Novel Immune Modulators Enhance Caenorhabditis elegans Resistance to Multiple Pathogens” (mSphere, 2021).
“And” between values parts separate entries of the source, which are not always exact repeats. Identical values can stand only once.

Tests used:
[1] = test system: C. elegans exposed to P. aeruginosa strain PA14; experiment: P. aeruginosa slow-killing assay (agar); assay type: in vivo, Caenorhabditis elegans; settings: for Rescue in slow killing on disruption of the PMK-1 MAPK pathway: pmk-1 or atf-7 RNAi; for Survival in slow-killing assay vs DMSO: wild-type young adult worms
From the text: The finding that each of the compounds activated PMK-1/p38 MAPK targets was of interest, as this pathway is associated with enhanced immunity against multiple bacterial pathogens in agar-based C. elegans assays. Therefore, we tested whether these compounds could promote survival in an agar-based, high-colonization pathogenesis model known as slow killing. Loss of PMK-1 activity substantially compromises survival in the slow-killing assay ([16], [47]). Wild-type, young adult worms were exposed to P. aeruginosa strain PA14 on agar plates impregnated with each of the five compounds. […] To see whether this depended upon the PMK-1 pathway, LK32, LK38, and LK56 were retested in worms where RNAi was used to knock down pmk-1/MAPK or atf-7/ATF7 (a key transcription factor whose activity is modulated by PMK-1 [63, 64]) (Fig. 9; see Table S2 in the supplemental material for TD50 and overall statistical significance).
FIG 8 Four LK molecules extend C. elegans life span in the slow-killing assay. […] The data shown are from a representative replicate. Each of the three biological replicates was comprised of three plates per condition, with each plate containing ∼60 worms. Statistical significance was calculated using a log-rank test. Worms that left the surface of the plate were excluded from analysis (see Table S2 in the supplemental material for TD50 and exact P values).
FIG 9 Rescue in slow killing by a subset of LK compounds depends upon the PMK-1/p38 MAPK pathway. Wild-type L4 worms were reared on RNAi targeting pmk-1/p38 MAPK, atf-7/ATF-7, or empty vector and placed onto slow-killing plates containing DMSO or LK32 (A and B), LK38 (C and D), or LK56 (E and F) at 50 µM. Starting at 24 h, worms were scored every 12 h for survival until all worms perished. Each of the three biological replicates was comprised of three plates, each plate contained approximately 50 to 70 worms. Statistical significance was calculated using log-rank test (see Table S2 in the supplemental material for TD50 and exact P values). For vector RNAi, DMSO versus compound, P < 0.001 for LK38, LK56, and LK32.
Supplementary file : FIG S5 NSY-1 and SEK-1, upstream members of the PMK-1/p38 MAPK pathway, are required for LK38-mediated rescue. Young adult wild-type, nsy-1/MAP3K15(ag3), or sek-1/MAP2K6(km-4) mutants were exposed to P. aeruginosa in the slow-killing assay in the presence of DMSO or LK38. Data for each condition at each time point represent the average value for three plates from one representative replicate (of three replicates total). Each plate contained ∼60 worms. P values were calculated using a log-rank test (see Table S2 in the supplemental material for the TD50 and exact P values). For wild-type DMSO versus LK38 P < 0.001. No statistically significant difference was measured between LK38 and DMSO for either mutant. Download FIG S5, PDF file, 0.1 MB.
Slow-killing (SK) plates were made as previously reported ([92]). Compounds were added to molten SK agar before pouring plates. After solidifying, 40 µl of PA14 overnight culture was spread on plates before incubating plates at 37°C for 24 h, followed by 25°C for 24 h. 5-fluoro-2′-deoxyuridine (FUDR) (0.1 mg/ml) was dropped on plates 30 min prior to picking worms, to ensure nematode sterility. Fifty to seventy L4-stage, wild-type worms were picked onto plates and scored every 12 h after the first 24 h, until all worms were dead. Three biological replicates were performed.

[2] = test system: glp-4(bn2) C. elegans exposed to P. aeruginosa PA14; experiment: P. aeruginosa liquid killing assay (effective rescue concentration); assay type: in vivo, Caenorhabditis elegans; settings: glp-4(bn2) worms, ± 95% confidence interval
Method: For the first round of characterization, 69 novel small molecules previously selected on the basis of their ability to improve C. elegans survival during exposure to P. aeruginosa in liquid ([14]) were tested for the ability to interfere with bacterial growth. MICs were determined for each compound by growing P. aeruginosa strain PA14 in static culture in 384-well plates with serial 2-fold dilutions of compounds. No worms were used in these assays. Next, effective rescue concentrations (EC; defined as the minimum concentration that results in statistically significant survival, compared to dimethyl sulfoxide [DMSO]) ([15], [18]) were determined for each compound using the standard P. aeruginosa liquid killing assay. Sterile glp-4(bn2) worms were used in all liquid-based assays to limit artifacts (i.e., unlaid eggs will hatch and cause matricide).
FIG 1 LK molecules rescue C. elegans from P. aeruginosa in liquid killing. […] (B) Lipinski values for the five LK molecules, showing their molecular mass, predicted octanol-water partition coefficient, polar surface area, number of hydrogen donors and acceptors, and the number of rotatable bonds. (C) Minimum effective concentrations (EC) and 95% confidence interval, MICs (defined as the minimum concentration to prevent grown in LB media), and their ratio (MIC/EC). The minimum effective concentration was calculated from the lowest concentration that retained statistically significant rescue of glp-4(bn2) C. elegans, a temperature-sensitive sterile strain, from exposure to P. aeruginosa PA14. […] Compounds were added in serial 2-fold dilutions from 50 µM to 12.5 μM. *, P < 0.05; **, P < 0.01; ***, P < 0.001. P values were calculated using Student’s t test. At least six wells containing 20 worms each per condition per replicate were used for determination of liquid killing. EC values were calculated based on at least three biological replicates. Error bars represent the standard error of the mean.
Liquid killing of C. elegans was performed as previously described with some changes ([91]). In brief, an overnight culture of LB medium was inoculated with a single colony of Pseudomonas aeruginosa strain PA14. Then, 400 µl of culture was spread onto a 10-cm slow-kill agar plate ([91]) and grown for 24 h at 37°C, followed by 24 h at 25°C. Bacteria were scraped from the plate, resuspended in S Basal medium, and added to 384-well plates with small molecules dissolved in DMSO. Solution in wells contained a final concentration of 40% SK media, 59% S Basal medium, 1% DMSO, and small molecules. For all liquid-based killing assays, solvent control wells contained 1% DMSO. MgSO4 and CaCl2 (300 µM) and cholesterol (1.6 µg/ml) were added to aid in production of virulence factors. Worms were sorted into 384-well plates using a COPAS FlowSort (Union Biometrica, Holliston, MA), incubated at 25°C until the DMSO control was roughly 35 to 55% dead, washed four times using an EL406 microplate washer (BioTek, VT), and stained with 50 μl of Sytox Orange at 1 µM to fluorescently stain dead worms. Wells were imaged in bright-field and RFP channels using the BioTek Cytation5, followed by image analysis using the CellProfiler software package to calculate fraction of dead worms in each well. EC values were defined as the minimum concentration that provided statistically significant rescue. At least three biological replicates were performed.

[3] = vector RNAi, 50 µM, Fig 9 panels A-B, C, E
[4] = vector RNAi, 50 µM, Fig 9 panels D, F
[5] = wild-type worms, 50 µM, Fig 8 (DMSO 58.9)

CN(C)/N=N/c1ccc(-c2cn(Cc3ccccc3)cn2)cc1 [LK38]
TD50, slow killing ([1]; N2 wild-type, Fig S5): 59.5 h | TD50, slow killing ([1]; atf-7 RNAi, 50 µM, Fig 9): 36.8 h | TD50, slow killing ([1]; nsy-1(ag3) mutant, Fig S5): 26.5 h | TD50, slow killing ([1]; pmk-1 RNAi, 50 µM, Fig 9): 35.6 h | Rescue in slow killing on disruption of the PMK-1 MAPK pathway ([1]; 50 µM): completely dependent upon the PMK-1/MAPK pathways | TD50, slow killing ([1]; sek-1(km4) mutant, Fig S5): 27.6 h | TD50, slow killing [1, 3]: 65.2 h | TD50, slow killing [1, 4]: 53.5 h | TD50, slow killing [1, 5]: 59.5 h | Survival in slow-killing assay vs DMSO ([1]; 50 µM): improved survival | EC (minimum effective concentration giving statistically significant rescue) [2]: 6.7 ± 2.0 µM

CCN(CC)/N=N/c1ccc(C(=O)O)cc1 [LK35]
TD50, slow killing [1, 5]: 57.5 h | Survival in slow-killing assay vs DMSO ([1]; 50 µM): not significant | EC (minimum effective concentration giving statistically significant rescue) [2]: 17.3 ± 6.1 µM

CNC(=O)Oc1c(Br)cc2sc(=O)oc2c1Br [LK34]
Survival in slow-killing assay vs DMSO ([1]; 50 µM): improved survival | EC (minimum effective concentration giving statistically significant rescue) [2]: 9.3 ± 4.4 µM and 9.3 µM

COC(=O)/C=C/C(=O)Nc1ccccc1 [LK32]
TD50, slow killing ([1]; atf-7 RNAi, 50 µM, Fig 9): 46.2 h | TD50, slow killing ([1]; pmk-1 RNAi, 50 µM, Fig 9): 45.6 h | Rescue in slow killing on disruption of the PMK-1 MAPK pathway ([1]; 50 µM): retained at least partial ability to rescue | TD50, slow killing [1, 3]: 59.1 h | Survival in slow-killing assay vs DMSO ([1]; 50 µM): improved survival | EC (minimum effective concentration giving statistically significant rescue) [2]: 32 ± 0.0 µM and 32 µM

O=c1cc(CNc2ccc(Br)cc2)nc2sccn12 [LK56]
TD50, slow killing ([1]; atf-7 RNAi, 50 µM, Fig 9): 38.5 h | TD50, slow killing ([1]; pmk-1 RNAi, 50 µM, Fig 9): 38.0 h | Rescue in slow killing on disruption of the PMK-1 MAPK pathway ([1]; 50 µM): retained at least partial ability to rescue | TD50, slow killing [1, 3]: 59.9 h | TD50, slow killing [1, 4]: 56.1 h | TD50, slow killing [1, 5]: 60.5 h | Survival in slow-killing assay vs DMSO ([1]; 50 µM): improved survival | EC (minimum effective concentration giving statistically significant rescue) [2]: 7.3 ± 1.9 µM and 7.3 µM
